Legend:
human oocytes = assay: Development of human somatic cell nuclear transfer oocytes beyond the cleavage stage; assay type: cell-based
Method: Oocytes were enucleated using microtubule birefringence (Oosight) as described previously by Noggle et al., 2011. Nuclear transfer was performed by fusion of somatic cells to oocytes using inactivated Sendai virus diluted 1:10 to 1:20 in suspension medium. Fusion was confirmed visually. 1-3 hours post fusion, oocytes were activated using 3 μM ionomycin in Global total for 5 minutes at 37 degrees celsius, followed by culture in 10 μM puromycin, 2 mM 6-DMAP, as well as the histone deacetylase (HDAC) inhibitors scriptaid and nch51 for 4 to 4.5 hours. Activated constructs were cultured in HDAC inhibitor for an additional 10-16 hours, followed by culture in Global total only. Culture was performed in a MINC incubator fed with gas containing 6% CO2, 5% oxygen and 89% nitrogen. Calcium-free medium was used for some of the manipulations resulting in nuclear transfer ES cells.
For some of the experiments described above additional modifications were introduced as described in Tachibana et al., 2013. Caffeine at a 1 mM concentration was added to the incubation medium during enucleation and oocyte fusion. Oocytes were activated using 2-4 pulses of 50 μs width at 2.7 kV/cm in mannitol containing fusion medium using an LF201 pulser (Nepagene), followed by 4 hours of culture in 2 mM 6-DMAP. Activated constructs were cultured in Global total containing 10% FBS and TSA for 12 hours, followed by culture to the blastocysts stage in medium containing 10% FBS.
The derivation of nuclear transfer ES cell lines from BJ fibroblasts at passage 11 was performed using nuclear transfer 30 min prior to the removal of the oocyte genome in the presence of 1 mM caffeine. Derivation of the adult cell NT-ES cell line was performed using somatic cells at passage 8, from a subject with T1D (ID-1018). Oocytes were transported in GMOPSplus containing 1 mM caffeine. Upon completion of the manipulation, oocytes were incubated for 45 min-1 h in calcium-free MCZB, then placed in calcium containing medium for 10 min prior to activation and culture as described above. Oocyte activation was performed within 2 hours post transfer using 4 electrical pulses, followed by incubation in medium containing HDAC inhibitors scriptaid and nch51, in addition to 10 μg/ml puromycin and 2 mM 6-DMAP for 4 hours, and thereafter, medium containing HDAC inhibitor for 15 hours. Culture was performed in a Heracell 150i incubator containing 5% CO2 at 37° C., in Global medium (IVFonline LGGG-050) containing 10% fetal bovine serum. ES cell derivation was conducted in medium containing DMEM/F12 supplemented with 10% KO-SR and 10% FBS, Rock inhibitor Y-27632, thiazovivin, non-essential amino acids, 10 ng/ml bFGF, Glutamax, and beta mercaptoethanol (all reagents from Life Technologies). Upon attachment, trophectoderm cells were ablated using laser pulses using a Lykos laser (Hamilton Thorne). Outgrowths were apparent within 10 days of plating, and were picked when colonies reached a size of about 1 mm in diameter. Passaging was done enzymatically using TrpLE (Life Technologies) and standard ES cell medium (substituting FBS with KO-SR and DMEM/F12 with KO-DMEM) using Rock inhibitor Y-27632 for the first day after plating.

enucleated mouse oocytes = assay: Chromosome segregation at the first mitosis after nuclear transfer; assay type: cell-based
From the text: To further investigate the mechanism of genomic instability after somatic cell nuclear transfer, we transferred genomes of somatic and embryonic mouse cells into enucleated mouse oocytes. As a control for our manipulations, we transplanted oocyte genomes from one MII oocyte to another. We first quantified the number of abnormal anaphase figures in unmanipulated oocytes, including bridges, fragments, and missegregating chromosomes. Abnormalities in parthenotes were few, or less than 5 percent at anaphase of the second meiosis and the first mitosis (FIG. 13A). […] Upon transfer of mitotic fibroblast or ES cell genomes into MII oocytes, the frequency of these abnormalities remained unaltered, or 6% and 6.9%. […] Abnormal anaphase figures were further increased when using interphase genomes of either cumulus cells or T cells.
As different cell types are known to differ in their gene expression pattern, we first determined whether gene expression during the first cell cycle was required for a normal chromosome segregation at the first embryonic mitosis. […] As cell-type specific gene expression appeared to be irrelevant to chromosome segregation at the first mitosis, we investigated whether other cell-type specific properties of the genome were of importance. It appeared conceivable that for normal chromosome segregation, the prior duplication of the genome at interphase must also be normal. To distinguish whether the chromosome segregation we observed were due to abnormal spindle attachment to chromosomes or due to structural deficiencies that can arise during DNA replication, we stained anaphases with antibodies recognizing centromeres. […]
To determine whether other parameters known to affect the developmental efficiency after somatic cell nuclear transfer affected the fidelity of segregation at the first mitosis, we investigated the role of the nuclear structure. […] We transferred somatic nuclei within the first hour post activation, and analyzed chromosome segregation at the first mitosis. […]

enucleated human oocytes = assay: Activation and polar body extrusion after transfer of a mitotic somatic genome; assay type: cell-based
Method: We next sought to determine the timing and molecular mechanism of these chromosomal abnormalities. We reasoned that if the removal of the oocyte spindle removed essential components, then these defects should be apparent at the second meiotic division. We removed the oocyte spindle-chromosome complex, and transferred the mitotic genome of a somatic cell that had been collected upon treatment with nocodazole and were kept on ice prior to transfer (FIG. 12A). Remarkably, within 1-2 hours post transfer, birefringent spindles were assembled in oocytes and chromosomes were aligned on the metaphase plate (FIGS. 12A, 12B, 12C). Upon artificial activation using a calcium ionophore and puromycin, 16/19 oocytes segregated somatic cell chromatin into a polar body and formed a single pronucleus in the activated oocyte (FIG. 12F-I). And like upon segregation of oocyte chromatin, a midbody formed and the chromosome passenger complex component survivin localized to the midbody (FIG. 12E). To examine the accuracy of chromosome segregation, (pseudo-) polar bodies were biopsied and the karyotype determined using nucleotide polymorphism arrays. […] However, when we analyzed the karyotype of blastomeres using nucleotide arrays, we found a large number of karyotypic abnormalities (FIG. 12I-L). […]

oocytes = details: oocyte activation with puromycin versus 6-dmap; cited from earlier work
[1] = enucleated oocytes, agent used at activation / first 17 hours of embryo culture

O=C(CCCCCN1C(=O)c2cccc3cccc(c23)C1=O)NO [scriptaid, 6-(1,3-Dioxo-1H,3H-benzo[de]isoquinolin-2-yl)-hexanoic acid hydroxyamide]
development after somatic cell nuclear transfer (human oocytes; [1]): development to the morula and blastocyst stage at a low frequency
frequency of chromosome segregation errors (enucleated mouse oocytes; first mitosis): decreased the frequency of chromosome segregation errors

CN(C)c1ncnc2nc[nH]c12 [6-dmap, 6-(dimethylamino)purine]
dividing embryos severely abnormal (enucleated mouse oocytes; somatic nuclei transferred within first hour after activation and kinase inhibition with 6-dmap): 90%

CC[C@H](C)[C@@H]1NC(=O)CNC(=O)[C@@H]2Cc3c([nH]c4cc(O)ccc34)[S+]([O-])C[C@@H](NC(=O)CNC1=O)C(=O)N[C@@H](CC(N)=O)C(=O)N1C[C@H](O)C[C@H]1C(=O)N[C@@H]([C@@H](C)[C@@H](O)CO)C(=O)N2 (stereo partly drawn) [alpha amanitin]
frequency of normal mitotic figures (enucleated mouse oocytes; added to culture medium during first cell cycle): did not significantly increase

COc1ccc(C[C@H](N)C(=O)N[C@H]2[C@@H](O)[C@H](n3cnc4c(N(C)C)ncnc43)O[C@@H]2CO)cc1 [puromycin]
development after somatic cell nuclear transfer (human oocytes; [1]): development still arrested at cleavage stages
development after somatic cell nuclear transfer (human oocytes; oocyte genome not removed, puromycin for oocyte activation): efficient development to the blastocyst stage
oocytes segregating somatic chromatin into a polar body and forming a single pronucleus (enucleated human oocytes; activation with a calcium ionophore and puromycin): 16/19
oocyte activation shown by polar body extrusion (enucleated human oocytes; puromycin for 4 hours without meiotic kinase inhibitor, M-phase somatic genome): efficient polar body extrusion
efficiency of parthenogenesis (oocytes): more efficient

Cn1c(=O)c2c(ncn2C)n(C)c1=O [caffeine]
efficiency and quality of blastocysts (human oocytes; caffeine also during oocyte transport, calcium omitted from manipulation medium): most efficient and high quality blastocyts
blastocyst development (human oocytes; electrical pulse for activation and caffeine during oocyte manipulation): 10%

Source: patent publication US10513709B2, “Somatic cell nuclear transfer methods” (priority 2013, dated 2019)
